Measured values taken from patent US20220218614A1, “IONIZABLE CATIONIC LIPIDS AND LIPID NANOPARTICLES, AND METHODS OF SYNTHESIS AND USE THEREOF” (Tidal Therapeutics, Inc., priority 2020, published 2022).
Where “and” joins values, the source holds several entries; their conditions need not be identical. Equal entries are not always repeated. Entries after “also recorded” stand apart in the source; their conditions may differ.

Assays:
[1] = test system: primary human T-cells (CD3+ T cells); assay: In vitro LNP transfection of primary human T-cells (GFP, Cy5 or DiI, viability by FACS); assay type: cell-based; details: for GFP protein expression (% GFP+ cells, GFP MFI), in words: hSP34 targeted LNP with GFP mRNA; for GFP protein expression (% GFP+ cells, GFP MFI), in words / T-cell viability / tolerability, in words / LNP association with cells (% Cy5+/Cy5 MFI or % DiI+/DiI MFI), in words: 24 hours; for T-cell viability / tolerability, in words / LNP association with cells (% Cy5+/Cy5 MFI or % DiI+/DiI MFI), in words: hSP34 targeted LNP; for T-cell viability / tolerability, in words: dose as in the value; for T-cell viability (% live): PBS control about 50%
Source text: This example describes the protocol used for in vitro LNP transfections in primary human T-cells. This method is used to assess LNP in vitro efficacy in relevant target cells (CD3+ T cells) by first transfecting the cells using LNPs loaded with mRNA encoding for a reporter gene, such as GFP mRNA, and then assessing transfection by measuring reporter gene expression by fluorescence-[…] cell sorting (FACS). Additionally, particle association with cells may be observed by in the same assay by labeling individual nanoparticle components, such as the mRNA, with a fluorescent dye, such as Cy5, and then observing cell/dye association by FACS.
CD3+ T cells were isolated from frozen peripheral blood mononuclear cells using an EasySep Human T Cell Isolation Kit on a RoboSep automated cell isolation system from […]. T cells were plated into a flat bottom 96-well plate in RPMI cell culture media supplemented with glutamax, 10% fetal bovine serum, and 40 ng/mL IL2. 100 μL of cell suspension was seeded per well at a density of 1M T cells/mL (100K T cells/well). Cells were allowed to rest for two hours in a 37° C. incubator, and then were transfected by gently adding 10 μL of a 22 μg/mL (by mRNA) nanoparticle suspension, resulting in a final mRNA concentration of 2 μg/mL. Cells were gently mixed with a pipette and then incubated for 24 hours in a 37° C. incubator. After incubation the cells were analyzed using an ThermoFisher Attune NXT flow cytometer. Cy5 was detected using a 638 nm laser with 670/14 nm filter. eGFP was detected using a 488 nm laser and a 530/30 nm filter. Data were analyzed using FlowJo software from BD biosciences. FACS data were first gated to exclude doublets and dead cells and then gated for GFP and Cy5. Gates for GFP+ and Cy5+were set such that a control sample (PBS treated T cells) was <0.1% positive.
CD3+ T cells were isolated from frozen peripheral blood mononuclear cells using an EasySep Human T Cell Isolation Kit on a RoboSep automated cell isolation system from […]. T cells were plated into a round bottom 96-well plate in RPMI cell culture media supplemented with glutamax, 10% fetal bovine serum, pen-strep, and 40 ng/mL IL-2. 100 μL of cell suspension was seeded per well at a density of 1M T cells/mL (100K T cells/well). Cells were allowed to rest for two hours in a 37° C. incubator, and then were transfected by gently adding 10 μL of a 22 μg/mL (by mRNA) nanoparticle suspension, resulting in a final mRNA concentration of 2 μg/mL (unless otherwise noted). Cells were gently mixed with a pipette and then incubated for 24 hours in a 37° C. incubator. After incubation the cells were diluted with FACS buffer (BD 554657) and analyzed using a BD Fortessa flow cytometer. Data were analyzed using FlowJo software from BD biosciences.

[2] = Zeta potential of LNPs by laser Doppler electrophoresis in 5 mM pH 5.5 MES and 5 mM pH 7.4 HEPES buffer; assay type: physicochemical; details: pH 5.5 MES and pH 7.4 HEPES buffer
Procedure: (§1) Samples of the LNPs produced in Example 2 were characterized to determine the average hydrodynamic diameter, zeta potential, and mRNA content (total and dye-accessible). The hydrodynamic diameter was determined by dynamic light scattering (DLS) using a Zetasizer model ZEN3600 (Malvern Pananalytical, UK). The zeta potential was measured in 5 mM pH 5.5 MES buffer and 5 mM pH 7.4 HEPES buffer by laser Doppler electrophoresis using the Zetasizer.

[3] = Quant-iT RiboGreen RNA assay: dye accessible and total (Triton) mRNA content, encapsulation; assay type: physicochemical
Procedure: RNA content of the nanoparticles is measured using Thermo Fisher Quant-iT RiboGreen RNA Assay Kit. Dye accessible RNA, which includes both non-incorporated RNA and RNA that is near the surface of the nanoparticle, is measured by diluting the nanoparticles to approximately 1 μg/mL mRNA using HEPES buffered saline, and then adding Quant-iT reagent to the mixture. Total RNA content is measured by diluting the particles to 1 μg/mL mRNA using HEPES buffered saline, disrupting the nanoparticles by heating them to 60° C. for 30 minutes in HEPES buffered saline containing 0.5% Triton, and then adding Quant-It reagent. RNA is quantified by measuring fluorescence at 485/535 nm, and concentration is determined relative to a contemporaneously run RNA standard curve.

[4] = Hydrodynamic diameter and polydispersity of LNPs by dynamic light scattering (DLS), Zetasizer; assay type: physicochemical
Procedure: as §1

[5] = Apparent pKa of LNPs by TNS fluorescent probe; assay type: physicochemical; details: LNP made with the named ionizable lipid; pH at 50% of maximum TNS fluorescence
Source text: This example describes the fluorescent dye based method used for measurement of the apparent pKa of the lipid nanoparticles. Apparent pKa determines the nanoparticle surface charge under physiological pH conditions, typically a pKa value in the endosomal pH range (6-7.4) results in LNPs that are neutral or slightly charged at plasma or the extracellular space (pH 7.4) and become strongly positive under acidic endosomal environments. This positive surface charge drives fusion of the LNP surface with negatively charged endosomal membranes resulting in destabilization and rupture of the endosomal compartment and LNP escape into the cytosolic compartment, a critical step in cytosolic delivery of mRNA and protein expression via engagement of the cells ribosomal machinery.
The apparent pKa of LNPs made using ionizable Lipids 2, 5 (synthesized as described in example 1), 6 and 7 (synthesized using method analogous to Lipid 2, 5, respectively, except using diethyl amine instead of dimethyl amine to incorporate the tertiary amine head group) were determined by 6-(p-Toluidino)-2-naphthalenesulfonic acid (TNS) fluorescence measurement in aqueous buffers covering a range of pH values (pH 4-pH 10). TNS is non-fluorescent when free in solution, but which fluoresces strongly when associated with a positively charged lipid nanoparticle. At a pH values below the pKa of the nanoparticle, positive LNP surface charge results in dye recruitment at the particle interface resulting in TNS fluorescence. At pH values above the LNP pKa no fluorescence is observed. The apparent pKa of the LNP is reported as the pH at which the fluorescence is at 50% of its maximum, as determined using a four-point logistic curve fit.

[6] = Table 11A: Lipid 5, Lipid 8 and DLn-MC3-DMA LNP, vortexer mixing, theoretical total mRNA 42.5 ug/mL
[7] = Table 11A: vortexer mixing, theoretical total mRNA 42.5 ug/mL
[8] = Table 25: Lipid 8 and Lipid 5 LNP, theoretical total mRNA 45 ug/mL
[9] = Table 10: Lipid 5 and Lipid 7 LNP, theoretical total mRNA 50 μg/mL

CCCCC/C=C\C/C=C\CCCCCCCCC(CCCCCCCC/C=C\C/C=C\CCCCC)OC(=O)CCCN(C)C [DLn-MC3-DMA, DLin-MC3-DMA, reference compound]
GFP protein expression (% GFP+ cells, GFP MFI), in words [1]: failed to express GFP protein | T-cell viability / tolerability, in words [1]: better tolerated at higher doses | LNP surface charge (zeta potential), in words [2]: positive zeta potential at pH 5.5, and either near neutral or slightly negative charge at pH 7.4 | Measured total (Triton method) mRNA [3, 6]: 33 µg/mL | Ribogreen Dye Accessible mRNA [3, 7]: 2 µg/mL | polydispersity after antibody conjugate insertion [4]: 0.2

CCCCC/C=C\C/C=C\CCCCCCCC(=O)OC[C@H](COC(=O)CCCN(C)C)OC(=O)CCCCCCC/C=C\C/C=C\CCCCC [Lipid 2]
T-cell viability / tolerability, in words [1]: well tolerated by T-cells at all LNP doses tested | apparent pKa of LNP (TNS) [5]: 7.5

CCCCC/C=C\C/C=C\CCCCCCCC(=O)OC[C@H](CCN(C)C)OC(=O)CCCCCCC/C=C\C/C=C\CCCCC [Lipid 5 (N)]
Measured total (Triton method) mRNA [3, 8]: 36 µg/mL | Ribogreen Dye Accessible mRNA [3, 8]: 7 µg/mL

CCCCC/C=C\C/C=C\CCCCCCCC(=O)OC[C@H](CCN(C)C)OC(=O)CCCCCCC/C=C\C/C=C\CCCCC [Lipid 5 (O)]
Measured total (Triton method) mRNA [3, 8]: 38 µg/mL | Ribogreen Dye Accessible mRNA [3, 8]: 7 µg/mL

CCCCC/C=C\C/C=C\CCCCCCCC(=O)OCC(CCN(CC)CC)OC(=O)CCCCCCC/C=C\C/C=C\CCCCC (stereo not shown) [Lipid 7]
GFP protein expression (% GFP+ cells, GFP MFI), in words [1]: Dose dependent expression of GFP protein; also recorded: significantly lower level of GFP protein expression relative to Lipid 5 LNP formulation | LNP association with cells (% Cy5+/Cy5 MFI or % DiI+/DiI MFI), in words [1]: equally associated with cells | T-cell viability / tolerability, in words [1]: well tolerated by T-cells at and below 0.5 μg/mL dose | % Dye Accessible mRNA ([3]; Table 10: Lipid 5 and Lipid 7 LNP): 14% | Measured total (Triton method) mRNA [3, 9]: 43 µg/mL | Ribogreen Dye Accessible mRNA [3, 9]: 6 µg/mL | apparent pKa of LNP (TNS) [5]: ~6.3 and ~6.4

CCCCC/C=C\C/C=C\CCCCCCCCC1(CCCCCCCC/C=C\C/C=C\CCCCC)OCC(CCN(C)C)O1 (stereo not shown) [Lipid 8, reference compound]
T-cell viability (% live) ([1]; 0.125 ug mRNA/mL per well): about 45% | T-cell viability (% live) ([1]; 2 ug mRNA/mL per well): about 25% | GFP protein expression (% GFP+ cells, GFP MFI), in words [1]: Dose dependent expression of GFP protein | LNP association with cells (% Cy5+/Cy5 MFI or % DiI+/DiI MFI), in words [1]: equally associated with cells | T-cell viability / tolerability, in words [1]: slightly lower viability at higher dose of 2 μg/mL; also recorded: dose dependent toxicity towards T-cells; also recorded: well tolerated by T-cells at and below 1.0 μg/mL dose | LNP surface charge (zeta potential), in words [2]: positive zeta potential at pH 5.5, and either near neutral or slightly negative charge at pH 7.4 | Measured total (Triton method) mRNA [3, 6]: 30 µg/mL | Ribogreen Dye Accessible mRNA [3, 7]: 3 µg/mL | Measured total (Triton method) mRNA [3, 8]: 40 µg/mL | Ribogreen Dye Accessible mRNA [3, 8]: 4 µg/mL | polydispersity after antibody conjugate insertion [4]: 0.2

CCCCC/C=C\C/C=C\CCCCCCCC(=O)OC[C@H](COC(=O)CCN(C)CCO)OC(=O)CCCCCCC/C=C\C/C=C\CCCCC [Lipid 12]
GFP protein expression (% GFP+ cells, GFP MFI), in words [1]: performed poorly | T-cell viability / tolerability, in words [1]: well tolerated by T-cells at all LNP doses tested

CCCCC/C=C\C/C=C\CCCCCCCC(=O)OC[C@H](COC(=O)CCN(CCO)CCO)OC(=O)CCCCCCC/C=C\C/C=C\CCCCC [Lipid 13]
GFP protein expression (% GFP+ cells, GFP MFI), in words [1]: performed poorly | T-cell viability / tolerability, in words [1]: well tolerated by T-cells at all LNP doses tested
